# Measurements taken from ChEMBL document CHEMBL3046559, “Sterile oat (Avena sterilis L.) cross-resistance profile to ACCase-inhibiting herbicides in Greece” (2012).
# What was measured:
# Assay type in all cases: functional
# [1] = test system: Avena sterilis; experiment: Herbicidal activity against Avena sterilis accession P10S assessed as weed survival at 1/4 times field recommended herbicide dose
# [2] = test system: Avena sterilis; experiment: Herbicidal activity against Avena sterilis accession P01 assessed as weed survival at 32 times field recommended herbicide dose
# [3] = test system: Avena sterilis; experiment: Herbicidal activity against Avena sterilis accession P18 assessed as weed survival at 16 times field recommended herbicide dose
# [4] = test system: Avena sterilis; experiment: Herbicidal activity against Avena sterilis accession P01 assessed as weed survival at 8 times field recommended herbicide dose
# [5] = test system: Avena sterilis; experiment: Herbicidal activity against Avena sterilis accession P11 assessed as weed survival at 1 times field recommended herbicide dose
# [6] = test system: Avena sterilis; experiment: Herbicidal activity against Avena sterilis accession P15 assessed as weed survival at 32 times field recommended herbicide dose
# [7] = test system: Avena sterilis; experiment: Herbicidal activity against Avena sterilis accession P21S assessed as induction of weed mortality
# [8] = test system: Avena sterilis; experiment: Herbicidal activity against Avena sterilis accession P11 assessed as induction of weed mortality
# [9] = test system: Avena sterilis; experiment: Herbicidal activity against Avena sterilis accession P02 assessed as weed survival at 8 times field recommended herbicide dose
# [10] = test system: Avena sterilis; experiment: Herbicidal activity against Avena sterilis accession P19S assessed as weed survival at 1/8 times field recommended herbicide dose
# [11] = test system: Avena sterilis; experiment: Herbicidal activity against Avena sterilis accession P20 assessed as weed survival at 32 times field recommended herbicide dose
# [12] = test system: Avena sterilis; experiment: Herbicidal activity against Avena sterilis accession P05 assessed as weed survival at 32 times field recommended herbicide dose
# [13] = test system: Avena sterilis; experiment: Herbicidal activity against Avena sterilis accession P16 assessed as weed survival at 1 times field recommended herbicide dose
# [14] = test system: Avena sterilis; experiment: Herbicidal activity against Avena sterilis accession P14 assessed as weed survival at 1 times field recommended herbicide dose
# [15] = test system: Avena sterilis; experiment: Herbicidal activity against Avena sterilis accession P07 assessed as weed survival at 32 times field recommended herbicide dose
# [16] = test system: Avena sterilis; experiment: Herbicidal activity against Avena sterilis accession P04 assessed as induction of weed mortality
# [17] = test system: Avena sterilis; experiment: Herbicidal activity against Avena sterilis accession P03 assessed as weed survival at 16 times field recommended herbicide dose
# [18] = test system: Avena sterilis; experiment: Herbicidal activity against Avena sterilis accession P09 assessed as weed survival at 8 times field recommended herbicide dose
# [19] = test system: Avena sterilis; experiment: Herbicidal activity against Avena sterilis accession P17 assessed as weed survival at 1 times field recommended herbicide dose
# [20] = test system: Avena sterilis; experiment: Herbicidal activity against Avena sterilis accession P04 assessed as weed survival at 4 times field recommended herbicide dose
# [21] = test system: Avena sterilis; experiment: Herbicidal activity against Avena sterilis accession P03 assessed as weed survival at 32 times field recommended herbicide dose
# [22] = test system: Avena sterilis; experiment: Herbicidal activity against Avena sterilis accession P16 assessed as weed survival at 4 times field recommended herbicide dose
# [23] = test system: Avena sterilis; experiment: Herbicidal activity against Avena sterilis accession P14 assessed as weed survival at 8 times field recommended herbicide dose
# [24] = test system: Avena sterilis; experiment: Herbicidal activity against Avena sterilis accession P15 assessed as induction of weed mortality
# [25] = test system: Avena sterilis; experiment: Herbicidal activity against Avena sterilis accession P18 assessed as induction of weed mortality
# [26] = test system: Avena sterilis; experiment: Herbicidal activity against Avena sterilis accession P05 assessed as weed survival at 8 times field recommended herbicide dose
# [27] = test system: Avena sterilis; experiment: Herbicidal activity against Avena sterilis accession P17 assessed as weed survival at 32 times field recommended herbicide dose
# [28] = test system: Avena sterilis; experiment: Herbicidal activity against Avena sterilis accession P17 assessed as weed survival at 16 times field recommended herbicide dose
# [29] = test system: Avena sterilis; experiment: Herbicidal activity against Avena sterilis accession P02 assessed as induction of weed mortality
# [30] = test system: Avena sterilis; experiment: Herbicidal activity against Avena sterilis accession P01 assessed as weed survival at 1 times field recommended herbicide dose
# [31] = test system: Avena sterilis; experiment: Herbicidal activity against Avena sterilis accession P17 assessed as induction of weed mortality
# [32] = test system: Avena sterilis; experiment: Herbicidal activity against Avena sterilis accession P06S assessed as weed survival at 1/32 times field recommended herbicide dose
# [33] = test system: Avena sterilis; experiment: Herbicidal activity against Avena sterilis accession P16 assessed as weed survival at 8 times field recommended herbicide dose
# [34] = test system: Avena sterilis; experiment: Herbicidal activity against Avena sterilis accession P12 assessed as weed survival at 4 times field recommended herbicide dose
# [35] = test system: Avena sterilis; experiment: Herbicidal activity against Avena sterilis accession P09 assessed as induction of weed mortality
# [36] = test system: Avena sterilis; experiment: Herbicidal activity against Avena sterilis accession P03 assessed as weed survival at 8 times field recommended herbicide dose
# [37] = test system: Avena sterilis; experiment: Herbicidal activity against Avena sterilis accession P13S assessed as weed survival at 1/16 times field recommended herbicide dose
# [38] = test system: Avena sterilis; experiment: Herbicidal activity against Avena sterilis accession P08 assessed as weed survival at 16 times field recommended herbicide dose
# [39] = test system: Avena sterilis; experiment: Herbicidal activity against Avena sterilis accession P20 assessed as weed survival at 4 times field recommended herbicide dose
# [40] = test system: Avena sterilis; experiment: Herbicidal activity against Avena sterilis accession P03 assessed as weed survival at 1 times field recommended herbicide dose
# [41] = test system: Avena sterilis; experiment: Herbicidal activity against Avena sterilis accession P08 assessed as weed survival at 1 times field recommended herbicide dose
# [42] = test system: Avena sterilis; experiment: Herbicidal activity against Avena sterilis accession P06S assessed as weed survival at 1/16 times field recommended herbicide dose
# [43] = test system: Avena sterilis; experiment: Herbicidal activity against Avena sterilis accession P12 assessed as weed survival at 1 times field recommended herbicide dose
# [44] = test system: Avena sterilis; experiment: Herbicidal activity against Avena sterilis accession P20 assessed as weed survival at 8 times field recommended herbicide dose
# [45] = test system: Avena sterilis; experiment: Herbicidal activity against Avena sterilis accession P13S assessed as weed survival at 1/4 times field recommended herbicide dose
# [46] = test system: Avena sterilis; experiment: Herbicidal activity against Avena sterilis accession P10S assessed as weed survival at 1 times field recommended herbicide dose
# [47] = test system: Avena sterilis; experiment: Herbicidal activity against Avena sterilis accession P13S assessed as induction of weed mortality
# [48] = test system: Avena sterilis; experiment: Herbicidal activity against Avena sterilis accession P05 assessed as induction of weed mortality
# [49] = test system: Avena sterilis; experiment: Herbicidal activity against Avena sterilis accession P14 assessed as induction of weed mortality
# [50] = test system: Avena sterilis; experiment: Herbicidal activity against Avena sterilis accession P18 assessed as weed survival at 1 times field recommended herbicide dose
# [51] = test system: Avena sterilis; experiment: Herbicidal activity against Avena sterilis accession P22 assessed as weed survival at 8 times field recommended herbicide dose
# [52] = test system: Avena sterilis; experiment: Herbicidal activity against Avena sterilis accession P02 assessed as weed survival at 16 times field recommended herbicide dose
# [53] = test system: Avena sterilis; experiment: Herbicidal activity against Avena sterilis accession P16 assessed as induction of weed mortality
# [54] = test system: Avena sterilis; experiment: Herbicidal activity against Avena sterilis accession P21S assessed as weed survival at 1/8 times field recommended herbicide dose
# [55] = test system: Avena sterilis; experiment: Herbicidal activity against Avena sterilis accession P11 assessed as weed survival at 16 times field recommended herbicide dose
# [56] = test system: Avena sterilis; experiment: Herbicidal activity against Avena sterilis accession P20 assessed as weed survival at 16 times field recommended herbicide dose
# [57] = test system: Avena sterilis; experiment: Herbicidal activity against Avena sterilis accession P07 assessed as weed survival at 4 times field recommended herbicide dose
# [58] = test system: Avena sterilis; experiment: Herbicidal activity against Avena sterilis accession P10S assessed as weed survival at 1/16 times field recommended herbicide dose
compound,measurement,setting,value
COC(=O)C(C)Oc1ccc(Oc2ccc(Cl)cc2Cl)cc1 (stereo unspecified) [DICLOFOP-METHYL],Survival,[1],90%
same,Survival,[2],50%
same,Survival,[3],40%
same,Survival,[4],80%
same,Survival,[5],100%
same,Survival,[6],80%
same,GR50,[7],418 gAi/ha
same,GR50,[8],>22740 gAi/ha
same,Survival,[9],80%
same,Survival,[10],100%
same,Survival,[11],70%
same,Survival,[12],20%
same,Survival,[13],80%
same,Survival,[14],90%
same,Survival,[15],20%
same,GR50,[16],14196 gAi/ha
same,Survival,[17],53%
same,Survival,[18],73%
same,Survival,[19],93%
same,Survival,[20],97%
same,Survival,[21],40%
same,Survival,[22],60%
same,Survival,[23],60%
same,GR50,[24],>22740 gAi/ha
same,GR50,[25],10199 gAi/ha
same,Survival,[26],40%
same,Survival,[27],20%
same,Survival,[28],43%
same,GR50,[29],>22740 gAi/ha
same,Survival,[30],90%
same,GR50,[31],8389 gAi/ha
same,Survival,[32],100%
same,Survival,[33],53%
same,Survival,[34],80%
same,GR50,[35],14176 gAi/ha
same,Survival,[36],60%
same,Survival,[37],90%
same,Survival,[38],53%
same,Survival,[39],100%
same,Survival,[40],100%
same,Survival,[41],97%
same,Survival,[42],100%
same,Survival,[43],80%
same,Survival,[44],80%
same,Survival,[45],80%
same,Survival,[46],33%
same,GR50,[47],509 gAi/ha
same,GR50,[48],4859 gAi/ha
same,GR50,[49],11045 gAi/ha
same,Survival,[50],100%
same,Survival,[51],40%
same,Survival,[52],70%
same,GR50,[53],5442 gAi/ha
same,Survival,[54],97%
same,Survival,[55],70%
same,Survival,[56],80%
same,Survival,[57],60%
same,Survival,[58],97%
CCOC(=O)[C@@H](C)Oc1ccc(Oc2nc3ccc(Cl)cc3o2)cc1 [FENOXAPROP-P-ETHYL],Survival,[1],30%
same,Survival,[2],20%
same,Survival,[3],73%
same,Survival,[4],40%
same,Survival,[5],97%
same,Survival,[6],23%
same,GR50,[7],18 gAi/ha
same,GR50,[8],2261 gAi/ha
same,Survival,[9],93%
same,Survival,[10],87%
same,Survival,[11],53%
same,Survival,[12],0%
same,Survival,[13],93%
same,Survival,[14],57%
same,Survival,[15],70%
same,GR50,[16],913 gAi/ha
same,Survival,[17],40%
same,Survival,[18],80%
same,Survival,[19],97%
same,Survival,[20],80%
same,Survival,[21],37%
same,Survival,[22],90%
same,Survival,[23],27%
same,GR50,[24],1440 gAi/ha
same,GR50,[25],>2640 gAi/ha
same,Survival,[26],20%
same,Survival,[27],0%
same,Survival,[28],20%
same,GR50,[29],2070 gAi/ha
same,Survival,[30],97%
same,GR50,[31],303 gAi/ha
same,Survival,[32],97%
same,Survival,[33],20%
same,Survival,[34],80%
same,GR50,[35],2121 gAi/ha
same,Survival,[36],60%
same,Survival,[37],80%
same,Survival,[38],30%
same,Survival,[39],100%
same,Survival,[40],97%
same,Survival,[41],100%
same,Survival,[42],90%
same,Survival,[43],100%
same,Survival,[44],90%
same,Survival,[45],43%
same,Survival,[46],0%
same,GR50,[47],18 gAi/ha
same,GR50,[48],181 gAi/ha
same,GR50,[49],155 gAi/ha
same,Survival,[50],100%
same,Survival,[51],7%
same,Survival,[52],67%
same,GR50,[53],505 gAi/ha
same,Survival,[54],80%
same,Survival,[55],57%
same,Survival,[56],83%
same,Survival,[57],77%
same,Survival,[58],87%
